# Earlier results, collected in US9745365B2, “Anti-influenza B virus hemagglutinin antibodies and methods of use” (priority 2014, dated 2017).
# Target: influenza B neuraminidase (Influenza B virus, UniProt P03474)
# Details: higher
# influenza B neuraminidase, sequence (P03474 whole entry): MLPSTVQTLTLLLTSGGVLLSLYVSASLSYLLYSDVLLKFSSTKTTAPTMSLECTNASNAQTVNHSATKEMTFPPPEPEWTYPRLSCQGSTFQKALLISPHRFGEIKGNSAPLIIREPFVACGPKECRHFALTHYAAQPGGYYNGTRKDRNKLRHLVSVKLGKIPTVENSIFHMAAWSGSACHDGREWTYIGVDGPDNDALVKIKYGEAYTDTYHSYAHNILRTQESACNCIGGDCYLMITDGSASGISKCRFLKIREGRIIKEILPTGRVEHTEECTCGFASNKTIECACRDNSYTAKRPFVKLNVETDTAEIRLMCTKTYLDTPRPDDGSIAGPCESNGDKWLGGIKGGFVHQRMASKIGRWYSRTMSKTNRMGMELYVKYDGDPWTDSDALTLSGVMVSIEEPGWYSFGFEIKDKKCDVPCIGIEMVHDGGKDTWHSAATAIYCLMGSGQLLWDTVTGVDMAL
smiles,measurement,value
CCOC(=O)C1=C[C@@H](OC(CC)CC)[C@H](NC(C)=O)[C@@H](N)C1 [oseltamivir phosphate],IC50 for influenza B neuraminidase compared to that for influenza A neuraminidase,10 fold
